US7488751B2, “Antidepressant cycloalkylamine derivatives of 2,3-dihydro-1,4-benzodioxan” (Wyeth, priority 2002, dated 2009)

Legend:
human 5-HT1A receptors = target: T1, human 5-HT1A receptors (Homo sapiens, UniProt P08908); assay: [3H] 8-OHDPAT displacement from the 5-HT1A serotonin receptor (transfected CHO cells); assay type: binding; settings: displacement of [3H] 8-OHDPAT; CHO cells stably transfected with human 5-HT1A receptors; read-out: 5-HT1A Receptor Affinity Ki
T1 construct: expressed in transfected cells; host or cells: CHO cells (stably transfected)
T1 sequence (P08908 1-422): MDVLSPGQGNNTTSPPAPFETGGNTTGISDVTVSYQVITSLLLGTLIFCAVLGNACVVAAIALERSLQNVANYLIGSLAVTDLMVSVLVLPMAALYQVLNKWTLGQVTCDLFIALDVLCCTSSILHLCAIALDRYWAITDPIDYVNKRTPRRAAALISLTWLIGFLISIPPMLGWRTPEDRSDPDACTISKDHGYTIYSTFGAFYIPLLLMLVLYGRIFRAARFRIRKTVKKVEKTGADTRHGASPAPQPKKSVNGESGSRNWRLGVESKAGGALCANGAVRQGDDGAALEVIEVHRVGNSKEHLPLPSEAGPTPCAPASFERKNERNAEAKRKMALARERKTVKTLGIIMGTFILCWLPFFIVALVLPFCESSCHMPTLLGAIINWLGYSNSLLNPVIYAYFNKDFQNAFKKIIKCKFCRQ
Excerpt: High affinity for the serotonin 5-HT1A receptor was established by testing the claimed compound's ability to displace [^3H] 8-OHDPAT (dipropylaminotetralin) from the 5-HT1A serotonin receptor following a modification of the procedure of Hall et al., J. Neurochem. 44, 1685 (1985) which utilizes CHO cells stably transfected with human 5-HT1A receptors.

[1] = target: T2, cloned human 5-HT1A receptors (Homo sapiens, UniProt P08908); assay: 35S-GTPγS binding assay, 5-HT1A function; assay type: biochemical; settings: for IC50: antagonist potency, reversal of effects of standard agonist 8-OHDPAT on 35S-GTPγS binding; for 5-HT1A Function (Imax): maximum inhibitory effect, 35S-GTPγS binding, reversal of 8-OHDPAT, unit assumed
T2 construct: expressed in transfected cells
T2 sequence (P08908 1-422): T1 sequence (P08908 1-422)
Description: Antagonist activity at 5-HT1A receptors was established by using a ^35S-GTPγS binding assay similar to that used by Lazareno and Birdsall (Br. J. Pharmacol. 109: 1120, 1993), in which the test compound's ability to affect the binding of ^35S-GTPγS to membranes containing cloned human 5-HT1A receptors was determined. Agonists produce an increase in binding whereas antagonists produce no increase but rather reverse the effects of the standard agonist 8-OHDPAT. The test compound's maximum inhibitory effect is represented as the Imax, while its potency is defined by the IC50.

serotonin transporter = target: T3, serotonin transporter (Rattus norvegicus, UniProt P31652); assay: 3H-paroxetine displacement, affinity for the serotonin transporter; assay type: binding; settings: displacement of 3H-paroxetine from male rat frontal cortical membranes; read-out: 5-HT Transporter Affinity Ki
T3 construct: displace ^3H-paroxetine from male rat frontal cortical membranes; from tissue; host or cells: male rat frontal cortex membranes

[2] = target: T2, cloned human 5-HT1A receptors; assay: 35S-GTPγS binding assay, 5-HT1A function; assay type: biochemical

T3 sequence (P31652 whole entry): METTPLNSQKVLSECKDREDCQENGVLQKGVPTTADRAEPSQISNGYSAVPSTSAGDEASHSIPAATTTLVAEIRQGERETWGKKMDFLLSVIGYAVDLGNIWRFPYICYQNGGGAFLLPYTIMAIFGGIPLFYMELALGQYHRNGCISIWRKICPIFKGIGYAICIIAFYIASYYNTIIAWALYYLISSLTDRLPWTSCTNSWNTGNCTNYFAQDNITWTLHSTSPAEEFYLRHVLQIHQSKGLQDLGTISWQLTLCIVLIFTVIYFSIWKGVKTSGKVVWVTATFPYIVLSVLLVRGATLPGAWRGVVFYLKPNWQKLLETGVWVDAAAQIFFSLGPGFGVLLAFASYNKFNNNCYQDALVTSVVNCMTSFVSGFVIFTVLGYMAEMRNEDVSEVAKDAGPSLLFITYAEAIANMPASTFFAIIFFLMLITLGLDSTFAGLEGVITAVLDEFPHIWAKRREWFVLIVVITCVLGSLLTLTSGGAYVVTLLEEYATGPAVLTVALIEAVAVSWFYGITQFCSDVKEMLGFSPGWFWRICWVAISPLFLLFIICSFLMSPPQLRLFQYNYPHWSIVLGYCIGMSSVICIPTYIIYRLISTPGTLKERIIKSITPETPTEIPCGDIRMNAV

SMILES | Ki (human 5-HT1A receptors) [nM] | IC50 [1] [nM] | 5-HT1A Function (Imax) [1] [%] | Ki (serotonin transporter) [nM] | EC50 ([2]; given as EC50) [nM] | Emax ([2]; given as Emax) [%]
COc1cccc2c1O[C@@H](CN[C@H]1CC[C@H](c3c[nH]c4ccc(F)cc34)C1)CO2 (mixture of isomers) [Example 2, N-[(trans)-3-(5-fluoro-1H-indol-3-yl)cyclopentyl]-N-{[(2S)-8-methoxy-2,3 dihydro-1,4-benzodioxin-2-yl]methyl}amine] | 14.5 | 7 | 99 | 0.6 | – | –
COc1cccc2c1O[C@@H](CN[C@H]1CC[C@@H](c3cn(C)c4ccc(F)cc34)C1)CO2 (mixture of isomers) [Example 3, N-[(cis)-3-(5-fluoro-1-methyl-1H-indol-3-yl)cyclopentyl]-N-{[(2S)-8-methoxy-2,3-dihydro-1,4-benzodioxin-2-yl]methyl}amine] | 10.8 | 152 | 64 | 12 | – | –
COc1cccc2c1O[C@@H](CN[C@H]1CC[C@H](c3cn(C)c4ccc(F)cc34)C1)CO2 (mixture of isomers) [Example 4, N-[(trans)-3-(5-fluoro-1-methyl-1H-indol-3-yl)cyclopentyl]-N-{[(2S)-8-methoxy-2,3-dihydro-1,4-benzodioxin-2-yl]methyl}amine] | 3.02 | 53 | 79 | 3.86 | – | –
CCOc1cccc2c1O[C@@H](CN[C@H]1CC[C@@H](c3c[nH]c4ccc(F)cc34)C1)CO2 (mixture of isomers) [Example 5, N-{[(2S)-8-ethoxy-2,3-dihydro-1,4-benzodioxin-2-yl]methyl}-N-[(cis)-3-(5-fluoro-1H-indol-3-yl)cyclopentyl]amine] | 8.09 | 105 | 48 | 0.6 | – | –
CCOc1cccc2c1O[C@@H](CN[C@H]1CC[C@H](c3c[nH]c4ccc(F)cc34)C1)CO2 (mixture of isomers) [Example 6, N-{[(2S)-8-ethoxy-2,3-dihydro-1,4-benzodioxin-2-yl]methyl}-N-[(trans)-3-(5-fluoro-1H-indol-3-yl)cyclopentyl]amine] | 25.2 | 359 | 25 | 0.43 | – | –
COc1cccc2c1O[C@@H](CN[C@@H]1CC[C@H](c3c[nH]c4ccc(F)cc34)C1)CO2 (single isomer, unassigned) [Example 1-Isomer A, N-[(1R*,3S*)-3-(5-fluoro-1H-indol-3-yl)cyclopentyl]-N-{[(2S)-8-methoxy-2,3-dihydro-1,4-benzodioxin-2-yl]methyl}amine] | 7.52 | 30 | 78 | 1.28 | – | –
COc1cccc2c1O[C@@H](CN[C@H]1CC[C@@H](c3c[nH]c4ccc(F)cc34)C1)CO2 (single isomer, unassigned) [Example 1-Isomer B, N-[(1S*,3R*)-3-(5-fluoro-1H-indol-3-yl)cyclopentyl]-N-{[(2S)-8-methoxy-2,3-dihydro-1,4-benzodioxin-2-yl]methyl}amine] | 3.61 | 22 | 100 | 1.92 | – | –
COc1cccc2c1O[C@@H](CN[C@H]1CC[C@H](c3c[nH]c4ccc(F)cc34)C1)CO2 (single isomer, unassigned) [Example 2-Isomer A, N-[(1S*,3S*)-3-(5-fluoro-1H-indol-3-yl)cyclopentyl]-N-{[(2S)-8-methoxy-2,3-dihydro-1,4-benzodioxin-2-yl]methyl}amine] | 23.6 | 375 | 84 | 1 | – | –
COc1cccc2c1O[C@@H](CN[C@@H]1CC[C@@H](c3c[nH]c4ccc(F)cc34)C1)CO2 (single isomer, unassigned) [Example 2-Isomer B, N-[(1R*,3R*)-3-(5-fluoro-1H-indol-3-yl)cyclopentyl]-N-{[(2S)-8-methoxy-2,3-dihydro-1,4-benzodioxin-2-yl]methyl}amine] | 2.05 | 76 | 32 | 0.8 | – | –
COc1cccc2c1O[C@@H](CN[C@@H]1CC[C@H](c3c[nH]c4ccc(C#N)cc34)C1)CO2 (single isomer, unassigned) [Example 7-Isomer A] | 5.29 | – | – | 0.64 | – | –
COc1cccc2c1O[C@@H](CN[C@H]1CC[C@H](c3c[nH]c4ccc(C#N)cc34)C1)CO2 (single isomer, unassigned) [Example 7-Isomer B] | 9.62 | 24 | 56 | 0.57 | – | –
COc1cccc2c1O[C@@H](CN[C@@H]1CC[C@H](c3cn(C)c4ccc(C#N)cc34)C1)CO2 (single isomer, unassigned) [Example 8-Isomer A] | 12.6 | – | – | 6 | 23 | 64
COc1cccc2c1O[C@@H](CN[C@H]1CC[C@H](c3cn(C)c4ccc(C#N)cc34)C1)CO2 (single isomer, unassigned) [Example 8-Isomer B] | 25.5 | – | – | 8 | – | –
COc1cccc2c1OC(CNC1CCC(c3c[nH]c4ccc(F)cc34)C1)CO2 [Example 1, N-[(cis)-3-(5-fluoro-1H-indol-3-yl)cyclopentyl]-N-{([(2S)-8-methoxy-2,3-dihydro-1,4-benzodioxin-2-yl]methyl}amine] | 5.82 | 55 | 100 | 1.07 | – | –
